Active and inactive are the calls of the source.
Legend:
[1] = target: T1, Histone-lysine N-methyltransferase NSD2 (Homo sapiens, UniProt O96028); assay type: biochemical
T1 sequence (O96028 whole entry): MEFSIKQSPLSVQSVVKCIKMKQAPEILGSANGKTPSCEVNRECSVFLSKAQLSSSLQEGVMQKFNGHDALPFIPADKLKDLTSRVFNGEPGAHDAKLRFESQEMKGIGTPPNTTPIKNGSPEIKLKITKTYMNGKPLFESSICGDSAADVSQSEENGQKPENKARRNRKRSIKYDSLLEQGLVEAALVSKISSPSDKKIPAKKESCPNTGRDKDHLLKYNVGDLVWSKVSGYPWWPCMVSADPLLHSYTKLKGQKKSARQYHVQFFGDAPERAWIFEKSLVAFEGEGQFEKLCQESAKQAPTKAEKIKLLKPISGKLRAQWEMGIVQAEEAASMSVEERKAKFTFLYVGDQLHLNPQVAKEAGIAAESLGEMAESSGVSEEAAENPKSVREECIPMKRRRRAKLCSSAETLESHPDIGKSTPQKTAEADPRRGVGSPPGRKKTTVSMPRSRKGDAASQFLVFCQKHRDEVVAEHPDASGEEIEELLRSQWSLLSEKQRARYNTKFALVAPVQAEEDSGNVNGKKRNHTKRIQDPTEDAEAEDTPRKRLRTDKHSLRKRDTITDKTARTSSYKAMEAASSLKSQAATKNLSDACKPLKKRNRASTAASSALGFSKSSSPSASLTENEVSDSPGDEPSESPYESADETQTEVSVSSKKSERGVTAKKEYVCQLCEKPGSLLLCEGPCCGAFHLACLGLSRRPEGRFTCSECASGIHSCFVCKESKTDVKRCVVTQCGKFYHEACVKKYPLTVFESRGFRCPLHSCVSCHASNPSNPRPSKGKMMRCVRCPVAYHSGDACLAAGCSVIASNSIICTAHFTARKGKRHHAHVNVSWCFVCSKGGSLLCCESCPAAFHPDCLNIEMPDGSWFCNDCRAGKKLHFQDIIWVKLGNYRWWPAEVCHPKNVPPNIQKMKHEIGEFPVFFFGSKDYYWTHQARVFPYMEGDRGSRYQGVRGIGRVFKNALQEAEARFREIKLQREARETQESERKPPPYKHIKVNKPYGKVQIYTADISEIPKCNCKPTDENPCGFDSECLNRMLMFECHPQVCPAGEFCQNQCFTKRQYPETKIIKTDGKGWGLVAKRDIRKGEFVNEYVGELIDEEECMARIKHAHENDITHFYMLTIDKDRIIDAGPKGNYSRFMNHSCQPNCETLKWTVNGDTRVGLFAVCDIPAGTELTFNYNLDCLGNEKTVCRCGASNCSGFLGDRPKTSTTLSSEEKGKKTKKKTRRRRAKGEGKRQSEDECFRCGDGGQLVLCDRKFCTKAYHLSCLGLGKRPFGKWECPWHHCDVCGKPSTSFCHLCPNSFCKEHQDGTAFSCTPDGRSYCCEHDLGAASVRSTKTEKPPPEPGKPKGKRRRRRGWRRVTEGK

[2] = cells
[3] = inhibitors of intracellular T. cruzi replication, confirmation, NIH3T3 host cells, beta-gal luminescence (AID 2044); assay type: functional, cell-based;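 also: intracellular parasites grown in NIH/3T3 mouse fibroblasts as host cells; luminescent beta-galactosidase reporter signal from transgenic T. cruzi replicating inside host cells; inhibitors lower the luminescence signal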
[4] = cytotoxicity toward NIH3T3 fibroblasts, dose response, counter-screen, cell-based, ATP luminescence, mouse fibroblasts (AID 2010); assay type: functional;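 also: cells exposed to compound for about 90 hours before reading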
[5] = target: Paired box protein Pax-8 (Homo sapiens, UniProt Q06710); test: inhibitors of PAX8-driven TPO luciferase reporter, dose response, RMG-I cells, cherry-pick (AID 687027); assay type: functional, cell-based;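 also: luciferase reporter driven by Pax8 target thyroperoxidase promoter measured by SteadyGlo luminescence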
Paired box protein Pax-8, sequence (Q06710 whole entry): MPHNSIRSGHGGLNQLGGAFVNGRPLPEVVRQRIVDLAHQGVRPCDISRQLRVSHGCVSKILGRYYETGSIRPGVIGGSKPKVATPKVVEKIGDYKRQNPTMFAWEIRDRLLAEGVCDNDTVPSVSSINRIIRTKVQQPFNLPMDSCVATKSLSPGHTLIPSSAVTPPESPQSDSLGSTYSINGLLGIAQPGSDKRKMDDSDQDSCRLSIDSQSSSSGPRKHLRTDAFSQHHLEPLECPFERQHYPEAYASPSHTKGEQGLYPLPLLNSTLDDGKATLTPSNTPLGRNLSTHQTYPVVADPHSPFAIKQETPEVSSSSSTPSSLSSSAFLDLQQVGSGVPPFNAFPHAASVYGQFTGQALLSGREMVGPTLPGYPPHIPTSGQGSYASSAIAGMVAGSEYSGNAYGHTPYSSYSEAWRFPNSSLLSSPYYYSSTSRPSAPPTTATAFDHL

[6] = IGROV1 ovarian cancer cell cytotoxicity, dose response, PAX8 inhibitor project, plate reader, dry powder samples (AID 743043); assay type: functional, cell-based; details: IGROV-1
[7] = cytotoxicity in OVCAR8 ovarian cancer cells, dose response, PAX8 project, cell-based, plate reader, dry powder samples (AID 743197); assay type: functional; details: OVCAR-8
[8] = target: T2, DNA repair and recombination protein RAD54-like (Homo sapiens, UniProt Q92698); test: inhibitors of human RAD54 branch migration, confirmation, biochemical, fluorescence, cherry-picked samples, dose series (AID 651657); assay type: functional
T2 sequence (Q92698 whole entry): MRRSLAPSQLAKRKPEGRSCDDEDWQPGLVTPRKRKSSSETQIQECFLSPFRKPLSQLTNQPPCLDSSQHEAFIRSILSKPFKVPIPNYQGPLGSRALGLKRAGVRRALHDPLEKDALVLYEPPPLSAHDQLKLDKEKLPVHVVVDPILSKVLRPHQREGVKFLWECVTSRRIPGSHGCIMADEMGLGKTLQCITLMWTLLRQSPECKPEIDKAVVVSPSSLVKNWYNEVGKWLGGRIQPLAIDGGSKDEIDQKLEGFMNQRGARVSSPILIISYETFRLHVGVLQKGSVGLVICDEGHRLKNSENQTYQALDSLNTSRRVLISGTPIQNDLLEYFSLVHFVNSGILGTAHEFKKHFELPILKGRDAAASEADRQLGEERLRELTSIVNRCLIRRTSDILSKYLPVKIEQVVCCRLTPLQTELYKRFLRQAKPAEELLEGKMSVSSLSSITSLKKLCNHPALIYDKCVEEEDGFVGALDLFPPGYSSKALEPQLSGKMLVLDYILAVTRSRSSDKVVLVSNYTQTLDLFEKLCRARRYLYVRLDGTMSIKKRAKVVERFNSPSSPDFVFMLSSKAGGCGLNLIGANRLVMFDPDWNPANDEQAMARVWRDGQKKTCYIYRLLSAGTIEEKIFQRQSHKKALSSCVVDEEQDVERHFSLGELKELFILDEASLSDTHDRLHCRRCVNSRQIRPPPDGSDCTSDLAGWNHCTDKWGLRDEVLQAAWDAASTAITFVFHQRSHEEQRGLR

[9] = growth suppression of beta-catenin-knockout colon cells, dose response, cell-based, HCT116, human colon tumor (AID 1045); assay type: functional;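 also: HCT116 colon tumor cells with beta catenin knocked out; cells exposed to compound for 60 hours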
[10] = growth suppression of PTEN-null colon cells, dose response, cell-based, HCT116 PTEN knockout (AID 1047); assay type: functional;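 also: HCT116 colon tumor cells with PTEN knocked out; cells exposed to compound for 60 hours before readout; potency for loss of cell viability measured by luminescence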
[11] = target: Nonstructural protein 1 (Influenza A virus, UniProt Q194T2); assay type: functional, Influenza A virus (A/California/07/2009(H1N1))
Nonstructural protein 1, sequence (Q194T2 whole entry): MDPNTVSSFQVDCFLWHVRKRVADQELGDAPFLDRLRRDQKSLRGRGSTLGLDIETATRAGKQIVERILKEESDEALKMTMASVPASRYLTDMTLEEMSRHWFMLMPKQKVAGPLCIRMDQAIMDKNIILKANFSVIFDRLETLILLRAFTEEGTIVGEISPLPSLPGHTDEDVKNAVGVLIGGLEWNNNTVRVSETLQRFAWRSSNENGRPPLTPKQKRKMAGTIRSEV

[12] = target: T3, Cytochrome P450 1A2 (Homo sapiens, UniProt P05177);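 also: PubChem cytochrome P450 panel assay, CYP1A2 panel member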
T3 sequence (P05177 whole entry): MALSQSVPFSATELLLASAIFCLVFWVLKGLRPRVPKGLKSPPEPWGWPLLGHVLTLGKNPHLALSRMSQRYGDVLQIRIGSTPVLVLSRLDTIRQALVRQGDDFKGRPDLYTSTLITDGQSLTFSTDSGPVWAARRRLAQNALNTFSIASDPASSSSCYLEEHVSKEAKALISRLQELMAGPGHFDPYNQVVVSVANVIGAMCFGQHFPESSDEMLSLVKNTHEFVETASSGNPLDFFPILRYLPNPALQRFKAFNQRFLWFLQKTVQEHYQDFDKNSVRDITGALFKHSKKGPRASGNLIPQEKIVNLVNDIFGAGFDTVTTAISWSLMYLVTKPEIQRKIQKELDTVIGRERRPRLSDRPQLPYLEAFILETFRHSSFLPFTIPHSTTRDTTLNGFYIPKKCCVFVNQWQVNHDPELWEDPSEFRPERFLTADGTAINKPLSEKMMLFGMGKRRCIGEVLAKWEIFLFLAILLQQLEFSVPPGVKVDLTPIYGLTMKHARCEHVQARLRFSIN

[13] = target: Cytochrome P450 2C9 (Homo sapiens, UniProt P11712)
Cytochrome P450 2C9, sequence (P11712 whole entry): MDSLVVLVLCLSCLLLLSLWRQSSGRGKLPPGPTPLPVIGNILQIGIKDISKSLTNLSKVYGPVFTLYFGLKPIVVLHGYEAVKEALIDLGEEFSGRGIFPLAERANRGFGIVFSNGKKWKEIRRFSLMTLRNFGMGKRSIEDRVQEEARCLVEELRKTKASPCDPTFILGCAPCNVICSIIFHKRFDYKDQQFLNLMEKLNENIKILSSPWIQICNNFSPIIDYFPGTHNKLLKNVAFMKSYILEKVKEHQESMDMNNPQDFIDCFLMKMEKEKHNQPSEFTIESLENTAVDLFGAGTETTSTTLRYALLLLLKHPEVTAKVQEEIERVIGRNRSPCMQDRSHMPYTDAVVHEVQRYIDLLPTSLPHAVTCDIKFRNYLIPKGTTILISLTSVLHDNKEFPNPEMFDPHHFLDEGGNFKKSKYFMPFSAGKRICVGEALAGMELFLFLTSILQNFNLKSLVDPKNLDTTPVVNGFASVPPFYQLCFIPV

[14] = target: Cytochrome P450 2C19 (Homo sapiens, UniProt P33261); test: Cytochrome panel assay with activity outcomes. Panel member name: p450-cyp2c19 Compounds with AC50 equal or less than 10 uM are considered active; assay type: functional
Cytochrome P450 2C19, sequence (P33261 whole entry): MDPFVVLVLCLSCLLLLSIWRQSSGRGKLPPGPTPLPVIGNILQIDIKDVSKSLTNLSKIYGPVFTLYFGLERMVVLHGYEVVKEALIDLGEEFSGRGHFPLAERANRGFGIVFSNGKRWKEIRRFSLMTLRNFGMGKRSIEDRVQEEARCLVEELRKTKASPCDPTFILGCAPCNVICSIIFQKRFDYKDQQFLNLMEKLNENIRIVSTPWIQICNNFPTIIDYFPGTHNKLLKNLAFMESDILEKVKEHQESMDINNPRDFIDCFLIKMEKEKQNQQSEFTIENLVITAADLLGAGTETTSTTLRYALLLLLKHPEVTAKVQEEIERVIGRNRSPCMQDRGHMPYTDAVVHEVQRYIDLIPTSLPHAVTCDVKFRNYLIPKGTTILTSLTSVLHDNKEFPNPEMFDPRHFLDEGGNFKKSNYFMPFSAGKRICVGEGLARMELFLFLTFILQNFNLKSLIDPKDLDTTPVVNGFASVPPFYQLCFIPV

[15] = target: T4, Mannose-6-phosphate isomerase (Homo sapiens, UniProt P34949); test: human PMI inhibitors, high substrate, primary screen, biochemical, fluorescence intensity, high mannose 6-phosphate (AID 1220)
T4 sequence (P34949 whole entry): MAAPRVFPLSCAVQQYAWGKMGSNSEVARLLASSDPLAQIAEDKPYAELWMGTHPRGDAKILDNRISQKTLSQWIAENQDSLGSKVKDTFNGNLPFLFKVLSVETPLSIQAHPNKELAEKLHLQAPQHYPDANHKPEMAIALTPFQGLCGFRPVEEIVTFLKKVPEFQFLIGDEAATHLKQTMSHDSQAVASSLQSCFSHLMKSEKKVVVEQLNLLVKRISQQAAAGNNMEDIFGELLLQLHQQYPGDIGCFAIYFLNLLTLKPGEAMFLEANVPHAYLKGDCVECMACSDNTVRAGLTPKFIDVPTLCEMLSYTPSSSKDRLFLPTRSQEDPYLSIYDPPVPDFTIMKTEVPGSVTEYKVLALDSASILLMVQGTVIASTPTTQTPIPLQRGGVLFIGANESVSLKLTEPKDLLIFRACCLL

[16] = target: T5, DNA repair protein RAD52 homolog (Homo sapiens, UniProt P43351); assay type: functional, biochemical
T5 sequence (P43351 whole entry): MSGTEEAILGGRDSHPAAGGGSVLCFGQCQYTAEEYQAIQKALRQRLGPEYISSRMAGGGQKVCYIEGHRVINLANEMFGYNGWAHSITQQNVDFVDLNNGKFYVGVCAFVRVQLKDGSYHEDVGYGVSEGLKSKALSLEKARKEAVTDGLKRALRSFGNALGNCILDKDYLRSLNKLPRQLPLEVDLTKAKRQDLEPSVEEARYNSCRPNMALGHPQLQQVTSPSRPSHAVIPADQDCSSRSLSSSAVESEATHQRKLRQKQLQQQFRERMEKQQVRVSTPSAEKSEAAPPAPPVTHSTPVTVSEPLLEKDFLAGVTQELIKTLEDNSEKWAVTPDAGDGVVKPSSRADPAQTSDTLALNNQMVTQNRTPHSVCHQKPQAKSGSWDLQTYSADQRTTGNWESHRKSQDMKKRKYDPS

[17] = target: T6, Protein skinhead-1 (Caenorhabditis elegans, UniProt P34707); assay type: functional
T6 sequence (P34707 whole entry): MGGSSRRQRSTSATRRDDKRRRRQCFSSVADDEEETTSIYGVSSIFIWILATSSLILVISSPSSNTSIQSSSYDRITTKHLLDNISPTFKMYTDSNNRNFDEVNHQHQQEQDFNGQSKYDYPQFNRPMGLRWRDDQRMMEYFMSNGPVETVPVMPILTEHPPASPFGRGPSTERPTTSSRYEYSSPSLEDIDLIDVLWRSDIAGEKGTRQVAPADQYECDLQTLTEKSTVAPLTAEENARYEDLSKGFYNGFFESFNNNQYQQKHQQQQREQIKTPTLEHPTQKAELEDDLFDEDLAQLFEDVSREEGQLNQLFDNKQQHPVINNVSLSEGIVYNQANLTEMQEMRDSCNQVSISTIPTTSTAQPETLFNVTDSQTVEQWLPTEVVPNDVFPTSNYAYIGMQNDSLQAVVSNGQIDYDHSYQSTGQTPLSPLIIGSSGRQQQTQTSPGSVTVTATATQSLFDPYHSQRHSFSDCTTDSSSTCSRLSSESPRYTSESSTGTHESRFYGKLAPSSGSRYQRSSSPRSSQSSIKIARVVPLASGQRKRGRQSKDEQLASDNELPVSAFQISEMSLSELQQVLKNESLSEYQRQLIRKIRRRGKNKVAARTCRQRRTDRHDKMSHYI

[18] = NIH:OVCAR-3 ovarian cancer cell cytotoxicity, dose response, PAX8 inhibitor project, plate reader, dry powder samples (AID 743044); assay type: functional, cell-based

## CCN(CC)CCNS(=O)(=O)c1ccc2c3c(cccc13)C(=O)N2
[1]
  AC50: > 20 µM (inactive)

## O=C1C(=O)C(Cl)=C(Cl)C(Cl)=C1Cl
[1]
  AC50: 11.2 µM (active)

## COc1ccc(-c2nn(-c3ccccc3)cc2C(=O)N/N=C/c2ccc([N+](=O)[O-])o2)cc1
[2]
  EC50: 0.038 µM (active)
[3]
  EC50: < 0.1 µM (active)
[4]
  EC50: > 60 µM (not active)

## C[C@@H]1CCCCO[C@@H](CN(C)C(=O)Nc2ccc(F)cc2)[C@H](C)CN([C@H](C)CO)C(=O)c2cc(NS(=O)(=O)c3ccc(Cl)cc3)ccc2O1
[5]
  AC50: 6.23 µM (active)
[6]
  AC50: 53 µM (active)
[7]
  AC50: > 70 µM (inactive)

## CCN(CC)CCNC(=O)c1cc2c(-c3ccc(Cl)cc3)nn(C)c2s1
[8]
  AC50: 6.7 µM (active)
[9]
  EC50: 4.09 µM (active)
[10]
  EC50: 5.5 µM (active)

## CCOc1ccc(NC2=C(OC)C(=O)c3ccccc3C2=O)cc1
[1]
  AC50: 6.18 µM (active)
[11]
  IC50: 7.02 µM (active)

## COc1ncc2nc(C)c(=O)n(CCC#N)c2n1
[12]
  AC50: 15.8 µM (inconclusive)
[13]
  AC50: inconclusive
[14]
  AC50: inconclusive

## O=c1cc(O)c2sc(Nc3cccc(C(F)(F)F)c3)nc2[nH]1
[15]
  IC50: > 50 µM (not active)

## COc1cccc2sc3cc(NCCCN4CCOCC4)ccc3c(=O)c12
[16]
  AC50: 5.68 µM (active)
[8]
  AC50: 10.6 µM (active)

## CCN(CC)S(=O)(=O)c1cccc2c(N(C)C)cccc12
[17]
  IC50: > 100 µM (inactive)
[13]
  AC50: inconclusive

## C[C@@H]1CCCCO[C@@H](CN(C)Cc2ccc3c(c2)OCO3)[C@@H](C)CN([C@@H](C)CO)C(=O)c2cc(NC(=O)Nc3ccc(C(F)(F)F)cc3)ccc2O1
[5]
  AC50: 8.56 µM (active)
[18]
  AC50: 40.3 µM (active)
[6]
  AC50: 37.4 µM (active)
[7]
  AC50: 44 µM (active)

## CN1CCN(c2nc(-c3cccc([N+](=O)[O-])c3)nc3ccccc23)CC1
[8]
  AC50: 7.36 µM (active)

## Cn1cc(CN2CCCC(CNC(=O)c3ccc4c(c3)OCO4)C2)c2ccccc21 (stereo not given)
[2]
  EC50: 0.064 µM (active)
[3]
  EC50: < 0.1 µM (active)
[4]
  EC50: > 60 µM (not active)

## NCc1csc(Nc2nncc3ccccc23)n1
[8]
  AC50: 23.7 µM (active)
